What all share (assay type): cell-based
The subject of assay [1] is A-549 (monolayer culture of a human lung carcinoma). In words: Cytotoxic activity screening, A-549 cells. To be noted: A549, 72 h, three days of incubation, Crystal Violet, approximate IC50. The protocol: (§1) Cell Cultures. Cells were maintained in logarithmic phase of growth in Eagle's Minimum Essential Medium, with Earle's Balanced Salts, with 2.0 mM L-glutamine, with non-essential amino acids, without sodium bicarbonate (EMEM/neaa); supplemented with 10% Fetal Calf Serum (FCS), 10^−2 M sodium bicarbonate and 0.1 g/l penicillin-G+streptomycin sulfate.
(§2) A simple screening procedure has been carried out to determine and compare the antitumour activity of these compounds, using an adapted form of the method described by Bergeron et al (1984). The tumour cell line employed have been P-388 (suspension culture of a lymphoid neoplasm from DBA/2 mouse), A-549 (monolayer culture of a human lung carcinoma), HT-29 (monolayer culture of a human colon carcinoma) and MEL-28 (monolayer culture of a human melanoma).
(§3) A-549, HT-29 and MEL-28 were seeded into 16 mm wells at 2×10^4 cells per well in 1 ml aliquots of MEM 10FCS containing the indicated concentration of drug. A separate set of cultures without drug was seeded as control growth to ensure that cells remained in exponential phase of growth. All determinations were carried out in duplicate. After three days of incubation at 37° C., 10% CO2 in a 98% humid atmosphere, the wells were stained with 0.1% Crystal Violet. An approximately IC50 was determined by comparing the growth in wells with drug to the growth in wells control.

The test system of assay [2] is MEL-28 (monolayer culture of a human melanoma). The experiment in a line: Cytotoxic activity screening, MEL-28 cells. As to conditions: SK-MEL-28, 72 h, three days of incubation, Crystal Violet, approximate IC50. The protocol: as §1, §2, §3
For another assay, the system named is DU-145. The experiment in a line: Cytotoxic activity screening, DU-145 cells. To be noted: Homo sapiens, DU-145, DU-145 cells.
Assay [3] relates to P-388 (suspension culture of a lymphoid neoplasm from DBA/2 mouse). The experiment in a line: Cytotoxic activity screening, P-388 cells. To be noted: P388, 72 h, three days of incubation, approximate IC50. On the procedure: as §1, §2
P-388 cell were seeded into 16 mm wells at 1×10^4 cells per well in 1 ml aliquots of MEM 5FCS containing the indicated concentration of drug. A separate set of cultures without drug was seeded as control growth to ensure that cells remained in exponential phase of growth. All determinations were carried out in duplicate.

Assay [4] concerns HT-29 (monolayer culture of a human colon carcinoma). In words: Cytotoxic activity screening, HT-29 cells. To be noted: HT-29, 72 h, three days of incubation, Crystal Violet, approximate IC50. On the procedure:
as §1, §2, §3

Structures are written as SMILES.

As a reminder, the IC50 is the concentration needed to halve the response being measured. For `CCCCCCCCCC(=O)NC[C@H]1c2c(c(OC(C)=O)c(C)c3c2OCO3)CC2[C@H]3c4c(cc(C)c(OC)c4O)C[C@@H]([C@H](C#N)N21)N3C` (stereo partly drawn), the IC50 (in assay [1]; in assay [2]; with DU-145; in assay [3]; in assay [4]) was 0.007 µM each time.

Regarding `CCCC(=O)N[C@@H](C)C(=O)NC[C@H]1c2c(c(OC(C)=O)c(C)c3c2OCO3)CC2[C@H]3c4c(cc(C)c(OC)c4O)C[C@@H]([C@H](C#N)N21)N3C` (stereo partly drawn), the IC50 in assay [1] came to 0.001 µM; in assay [2], 0.0005 µM; in the assay on DU-145, 0.001 µM; in assay [3], 0.001 µM; in assay [4] it was 0.0005 µM.

Regarding `COc1c(C)cc2c(c1O)[C@@H]1C3Cc4c(OC(C)=O)c(C)c5c(c4[C@H](CNC(=O)/C=C/c4ccccc4)N3[C@@H](C#N)[C@H](C2)N1C)OCO5` (stereo partly drawn), the IC50 (in assay [1]; in assay [2]; in the assay on DU-145; in assay [3]; in assay [4]) was 0.0001 µM throughout.

The values are drawn from patent publication US7524956B2, “Hemisynthetic method and new compounds” (Pharma Mar, S.A., priority 1999, dated 2009).
